Patent US9481676B2, “Azepino[4,5-B]indoles and methods of use” (Medivation Technologies, Inc., priority 2008, dated 2016)

Legend:
[1] = molecular target: T1, human recombinant histamine H1 receptor (Homo sapiens, UniProt P35367); assay: Histamine H1 radioligand binding ([3H]Pyrilamine); conditions: compound at 1 μM; read-out: Histamine Binding (1 μM) H1, percent inhibition of specific binding
T1 construct: expressed in transfected cells; host or cells: CHO cells
Description: To evaluate in radioligand binding assays the activity of compounds of the invention, human recombinant histamine H1 receptor expressed in Chinese hamster ovary (CHO) cells (De Backer, M. D. et al., Biochem. Biophys. Res. Comm. 197(3):1601, 1993) in a modified Tris-HCl buffer (50 mM Tris-HCl, pH 7.4, 2 mM MgCl2, 100 mM NaCl, 250 mM Sucrose) was used. Compounds of the invention were incubated with 1.2 nM [^3H]Pyrilamine for 180 min. at 25° C. Non-specific binding was estimated in the presence of 1 μM pyrilamine. Receptor proteins were filtered and washed, the filters were then counted to determine [^3H]Pyrilamine specifically bound. Compounds were screened at 1 μM or lower, using 1% DMSO as vehicle. Biochemical assay results are presented as the percent inhibition of specific binding in Table 6.

[2] = molecular target: T2, human recombinant histamine H2 receptor (Homo sapiens, UniProt P25021); assay: Histamine H2 radioligand binding ([125I]Aminopotentidine); conditions: compound at 1 μM; read-out: Histamine Binding (1 μM) H2, percent inhibition of specific binding
T2 construct: expressed in transfected cells; host or cells: CHO-K1 cells
T2 sequence (P25021 whole entry): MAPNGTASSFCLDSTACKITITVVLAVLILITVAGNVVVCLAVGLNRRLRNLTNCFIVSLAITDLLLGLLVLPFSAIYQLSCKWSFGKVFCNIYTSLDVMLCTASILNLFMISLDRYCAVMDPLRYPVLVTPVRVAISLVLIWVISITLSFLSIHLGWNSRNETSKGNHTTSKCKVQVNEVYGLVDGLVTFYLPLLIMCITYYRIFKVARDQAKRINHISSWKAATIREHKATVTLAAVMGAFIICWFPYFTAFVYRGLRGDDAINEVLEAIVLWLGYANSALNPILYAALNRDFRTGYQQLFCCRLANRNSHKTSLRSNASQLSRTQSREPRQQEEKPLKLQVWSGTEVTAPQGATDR
Description: To evaluate in radioligand binding assays the activity of compounds of the invention, human recombinant histamine H2 receptor expressed in Chinese hamster ovary (CHO) K1 cells (Ruat, M., Proc. Natl. Acad. Sci. USA. 87(5):1658, 1990) in a 50 mM Phosphate buffer, pH 7.4 was used. Compounds of the invention were incubated with 0.1 nM [^125I]Aminopotentidine for 120 min. at 25° C. Non-specific binding was estimated in the presence of 3 μM Tiotidine. Receptor proteins were filtered and washed, the filters were then counted to determine [^125I]Aminopotentidine specifically bound. Compounds were screened at 1 μM or lower, using 1% DMSO as vehicle. Biochemical assay results are presented as the percent inhibition of specific binding in Table 6.

[3] = molecular target: T3, human recombinant dopamine D2L receptor (Homo sapiens, UniProt P14416); assay: Dopamine D2L radioligand binding ([3H]Spiperone); conditions: compound at 1 μM; read-out: Dopamine (1 μM) D2L, percent inhibition of specific binding
T3 construct: expressed in transfected cells; host or cells: CHO cells
T3 sequence (P14416 whole entry): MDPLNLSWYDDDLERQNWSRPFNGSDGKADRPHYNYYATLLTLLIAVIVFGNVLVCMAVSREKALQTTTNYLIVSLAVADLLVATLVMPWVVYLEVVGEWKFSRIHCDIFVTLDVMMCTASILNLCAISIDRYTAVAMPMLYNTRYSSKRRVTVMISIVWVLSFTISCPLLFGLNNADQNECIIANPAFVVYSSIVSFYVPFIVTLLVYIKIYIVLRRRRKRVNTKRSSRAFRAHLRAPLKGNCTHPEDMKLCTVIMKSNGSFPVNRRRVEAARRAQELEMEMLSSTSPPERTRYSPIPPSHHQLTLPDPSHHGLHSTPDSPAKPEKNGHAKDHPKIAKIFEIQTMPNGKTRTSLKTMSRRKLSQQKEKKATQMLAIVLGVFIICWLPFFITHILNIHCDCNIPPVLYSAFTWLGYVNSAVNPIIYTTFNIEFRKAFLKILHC
Description: To evaluate in radioligand binding assays the activity of compounds of the invention, human recombinant dopamine D2L receptor expressed in Chinese hamster ovary (CHO) cells (Grandy, D. K. et al. Proc. Natl. Acad. Sci. USA. 86:9762, 1989; Hayes, G. et al., Mol. Endocrinol. 6:920, 1992) in a modified Tris-HCl buffer (50 mM Tris-HCl, pH 7.4, 1.4 mM Ascorbic Acid, 0.001% BSA, 150 mM NaCl) was used. Compounds of the invention were incubated with 0.16 nM [^3H]Spiperone for 120 min. at 25° C. Non-specific binding was estimated in the presence of 10 μM Haloperidol. Receptor proteins were filtered and washed, the filters were then counted to determine [^3H]Spiperone specifically bound. Compounds were screened at 1 μM or lower, using 1% DMSO as vehicle. Biochemical assay results are presented as the percent inhibition of specific binding in Table 5.

[4] = molecular target: T4, human recombinant serotonin (5-Hydroxytryptamine) 5-HT2A receptor (Homo sapiens, UniProt P28223); assay: Serotonin 5-HT2A radioligand binding ([3H]Ketanserin); conditions: compound at 1 μM; read-out: Serotonin (1 μM) 5-HT2A, percent inhibition of specific binding
T4 construct: expressed in transfected cells; host or cells: CHO-K1 cells
T4 sequence (P28223 whole entry): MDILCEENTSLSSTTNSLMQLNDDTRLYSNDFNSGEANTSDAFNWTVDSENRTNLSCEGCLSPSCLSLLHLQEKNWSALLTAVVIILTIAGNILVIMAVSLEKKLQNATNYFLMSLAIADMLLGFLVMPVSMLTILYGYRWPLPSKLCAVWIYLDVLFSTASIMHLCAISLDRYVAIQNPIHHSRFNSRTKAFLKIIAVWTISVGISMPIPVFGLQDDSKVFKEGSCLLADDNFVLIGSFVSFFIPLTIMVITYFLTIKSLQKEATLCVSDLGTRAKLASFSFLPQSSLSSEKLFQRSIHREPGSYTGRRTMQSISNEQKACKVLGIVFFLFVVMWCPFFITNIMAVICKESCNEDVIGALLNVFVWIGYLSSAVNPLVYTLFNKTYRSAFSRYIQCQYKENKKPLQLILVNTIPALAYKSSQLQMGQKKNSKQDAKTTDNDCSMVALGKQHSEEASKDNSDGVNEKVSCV
Description: To evaluate in radioligand binding assays the activity of compounds of the invention, human recombinant serotonin (5-Hydroxytryptamine) 5-HT2A receptor expressed in Chinese hamster ovary (CHO-K1) cells (Bonhaus, D. W. et al. Br. J. Pharmacol. 115:622, 1995; Saucier, C. and Albert, P. R., J. Neurochem. 68:1998, 1997) in a 50 mM Tris-HCl buffer, pH 7.4, was used. Compounds of the invention were incubated with 0.5 nM [^3H]Ketanserin for 60 min. at 25° C. Non-specific binding was estimated in the presence of 1 μM Mianserin. Receptor proteins were filtered and washed, the filters were then counted to determine [^3H]Ketanserin specifically bound. Compounds were screened at 1 μM or lower, using 1% DMSO as vehicle. Biochemical assay results are presented as the percent inhibition of specific binding in Table 6.

[5] = molecular target: T5, human recombinant serotonin (5-Hydroxytryptamine) 5-HT2C receptor (Homo sapiens, UniProt P28335); assay: Serotonin 5-HT2C radioligand binding ([3H]Mesulergine); conditions: compound at 1 μM; read-out: Serotonin (1 μM) 5-HT2C, percent inhibition of specific binding
T5 construct: expressed in transfected cells; host or cells: CHO-K1 cells
T5 sequence (P28335 33-458): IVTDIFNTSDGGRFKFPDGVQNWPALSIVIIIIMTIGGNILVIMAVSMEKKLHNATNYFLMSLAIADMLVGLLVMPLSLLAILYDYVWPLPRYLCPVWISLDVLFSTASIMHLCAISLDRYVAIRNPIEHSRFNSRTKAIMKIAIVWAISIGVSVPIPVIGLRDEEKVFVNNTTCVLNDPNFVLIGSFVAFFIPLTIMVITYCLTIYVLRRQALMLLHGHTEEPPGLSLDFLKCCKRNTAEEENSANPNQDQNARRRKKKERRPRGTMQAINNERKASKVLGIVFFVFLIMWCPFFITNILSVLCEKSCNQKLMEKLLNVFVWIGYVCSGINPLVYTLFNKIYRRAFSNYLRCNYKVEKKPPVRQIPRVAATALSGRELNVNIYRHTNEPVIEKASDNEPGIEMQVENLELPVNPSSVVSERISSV
Description: To evaluate in radioligand binding assays the activity of compounds of the invention, human recombinant serotonin (5-Hydroxytryptamine) 5-HT2C receptor expressed in Chinese hamster ovary (CHO-K1) cells (Wolf, W. A. and Schutz, J. S., J. Neurochem. 69:1449, 1997) in a modified Tris-HCl buffer (50 mM Tris-HCl, pH 7.4, 0.1% Ascorbic Acid, 10 μM Pargyline) was used. Compounds of the invention were incubated with 1 nM [^3H]Mesulergine for 60 min. at 25° C. Non-specific binding was estimated in the presence of 1 μM Mianserin. Receptor proteins were filtered and washed, the filters were then counted to determine [^3H]Mesulergine specifically bound. Compounds were screened at 1 μM or lower, using 1% DMSO as vehicle. Biochemical assay results are presented as the percent inhibition of specific binding in Table 6.

[6] = molecular target: T6, human recombinant serotonin (5-Hydroxytryptamine) 5-HT6 receptor (Homo sapiens, UniProt P50406); assay: Serotonin 5-HT6 radioligand binding ([3H]LSD); conditions: compound at 1 μM; read-out: Serotonin (1 μM) 5-HT6, percent inhibition of specific binding
T6 construct: expressed in transfected cells; host or cells: human HeLa cells
T6 sequence (P50406 whole entry): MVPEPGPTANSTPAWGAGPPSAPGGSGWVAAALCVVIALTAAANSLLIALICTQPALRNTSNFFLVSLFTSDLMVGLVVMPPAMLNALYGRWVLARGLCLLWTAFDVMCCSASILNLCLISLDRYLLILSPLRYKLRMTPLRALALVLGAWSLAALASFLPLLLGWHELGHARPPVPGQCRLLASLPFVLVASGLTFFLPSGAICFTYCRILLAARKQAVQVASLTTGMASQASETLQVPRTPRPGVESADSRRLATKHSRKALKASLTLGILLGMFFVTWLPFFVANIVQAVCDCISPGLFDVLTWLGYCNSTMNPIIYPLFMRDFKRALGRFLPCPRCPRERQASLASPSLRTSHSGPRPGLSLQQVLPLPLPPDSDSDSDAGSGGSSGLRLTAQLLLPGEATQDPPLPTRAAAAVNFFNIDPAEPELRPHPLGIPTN
Description: To evaluate in radioligand binding assays the activity of compounds of the invention, human recombinant serotonin (5-Hydroxytryptamine) 5-HT6 receptor expressed in human HeLa cells (Monsma, F. J. Jr. et al., Mol. Pharmacol. 43:320, 1993) in a modified Tris-HCl buffer (50 mM Tris-HCl, pH 7.4, 150 mM NaCl, 2 mM Ascorbic Acid, 0.001% BSA) was used. Compounds of the invention were incubated with 1.5 nM [3H]Lysergic acid diethylamide (LSD) for 120 min. at 37° C. Non-specific binding was estimated in the presence of 5 μM Serotonin (5-HT). Receptor proteins were filtered and washed, the filters were then counted to determine [3H]LSD specifically bound. Compounds were screened at 1 μM or lower, using 1% DMSO as vehicle. Biochemical assay results are presented as the percent inhibition of specific binding in Table 6.

T1 sequence (P35367 whole entry): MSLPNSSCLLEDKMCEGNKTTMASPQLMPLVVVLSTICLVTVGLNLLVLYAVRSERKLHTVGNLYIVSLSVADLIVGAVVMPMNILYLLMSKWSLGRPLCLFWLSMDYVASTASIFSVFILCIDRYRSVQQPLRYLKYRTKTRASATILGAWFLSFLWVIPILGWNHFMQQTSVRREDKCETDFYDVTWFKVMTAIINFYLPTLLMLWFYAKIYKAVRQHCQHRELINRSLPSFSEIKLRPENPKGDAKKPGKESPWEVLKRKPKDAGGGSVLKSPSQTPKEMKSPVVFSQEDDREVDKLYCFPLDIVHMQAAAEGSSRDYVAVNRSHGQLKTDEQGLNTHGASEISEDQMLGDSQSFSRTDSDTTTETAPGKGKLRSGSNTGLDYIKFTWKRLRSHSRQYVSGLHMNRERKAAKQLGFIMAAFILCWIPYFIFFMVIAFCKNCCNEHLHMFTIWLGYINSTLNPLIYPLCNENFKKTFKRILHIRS

Row | SMILES | inhibition at 1 µM [1] [%] | inhibition at 1 µM [2] [%] | inhibition at 1 µM [3] [%] | inhibition at 1 µM [4] [%] | inhibition at 1 µM [5] [%] | inhibition at 1 µM [6] [%]
1 | C/C(=C\n1c2c(c3cc(C)ccc31)CCN(C)CC2)c1ccccc1F [Compound No. 241, (E)-6-(2-(2-fluorophenyl)prop-1-enyl)-3,9-dimethyl-1,2,3,4,5,6-hexahydroazepino[4,5-b]indole] | 98 | 93 | 37 | 100 | 97 | 100
2 | C/C(=C/n1c2c(c3cc(Cl)ccc31)CCN(C)CC2)c1ccccc1F [Compound No. 242, (Z)-9-chloro-6-(2-(2-fluorophenyl)prop-1-enyl)-3-methyl-1,2,3,4,5,6-hexahydroazepino[4,5-b]indole] | 100 | 98 | 69 | 99 | 94 | 102
3 | C/C(=C\n1c2c(c3cc(Cl)ccc31)CCN(C)CC2)c1ccccc1F [Compound No. 243, (E)-9-chloro-6-(2-(2-fluorophenyl)prop-1-enyl)-3-methyl-1,2,3,4,5,6-hexahydroazepino[4,5-b]indole] | 93 | 84 | 32 | 98 | 102 | 99
4 | C/C(=C/n1c2c(c3cc(Cl)ccc31)CCN(C)CC2)c1ccccc1Cl [Compound No. 244, (Z)-9-chloro-6-(2-(2-chlorophenyl)prop-1-enyl)-3-methyl-1,2,3,4,5,6-hexahydroazepino[4,5-b]indole] | 102 | 99 | 43 | 100 | 101 | 103
5 | C/C(=C\n1c2c(c3cc(Cl)ccc31)CCN(C)CC2)c1ccccc1Cl [Compound No. 245, (E)-9-chloro-6-(2-(2-chlorophenyl)prop-1-enyl)-3-methyl-1,2,3,4,5,6-hexahydroazepino[4,5-b]indole] | 96 | 88 | 16 | 99 | 99 | 97
6 | C/C(=C\n1c2c(c3cc(Cl)ccc31)CCN(C)CC2)c1cccnc1 [Compound No. 246, (E)-9-chloro-3-methyl-6-(2-(pyridin-3-yl)prop-1-enyl)-1,2,3,4,5,6-hexahydroazepino[4,5-b]indole] | 96 | 48 | 14 | 98 | 99 | 94
7 | C/C(=C\n1c2c(c3cc(C)ccc31)CCN(C)CC2)c1cccnc1 [Compound No. 247, (E)-3,9-dimethyl-6-(2-(pyridin-3-yl)prop-1-enyl)-1,2,3,4,5,6-hexahydroazepino[4,5-b]indole] | 82 | 36 | 8 | 98 | 99 | 74
8 | C/C(=C\n1c2c(c3cc(Cl)ccc31)CCN(C)CC2)c1ccncc1 [Compound No. 248, (E)-9-chloro-3-methyl-6-(2-(pyridin-4-yl)prop-1-enyl)-1,2,3,4,5,6-hexahydroazepino[4,5-b]indole] | 88 | 44 | 81 | 99 | 101 | 103
9 | C/C(=C/n1c2c(c3cc(Cl)ccc31)CCN(C)CC2)c1cccc(F)c1 [Compound No. 249, (Z)-9-chloro-6-(2-(3-fluorophenyl)prop-1-enyl)-3-methyl-1,2,3,4,5,6-hexahydroazepino[4,5-b]indole] | 98 | 97 | 35 | 100 | 98 | 101
10 | C/C(=C\n1c2c(c3cc(Cl)ccc31)CCN(C)CC2)c1cccc(F)c1 [Compound No. 250, (E)-9-chloro-6-(2-(3-fluorophenyl)prop-1-enyl)-3-methyl-1,2,3,4,5,6-hexahydroazepino[4,5-b]indole] | 93 | 85 | 15 | 100 | 99 | 99
11 | C/C(=C/n1c2c(c3cc(C)ccc31)CCN(C)CC2)c1cccc(F)c1 [Compound No. 251, (Z)-6-(2-(3-fluorophenyl)prop-1-enyl)-3,9-dimethyl-1,2,3,4,5,6-hexahydroazepino[4,5-b]indole] | 96 | 95 | 35 | 101 | 99 | 99
12 | C/C(=C\n1c2c(c3cc(C)ccc31)CCN(C)CC2)c1cccc(F)c1 [Compound No. 252, (E)-6-(2-(3-fluorophenyl)prop-1-enyl)-3,9-dimethyl-1,2,3,4,5,6-hexahydroazepino[4,5-b]indole] | 93 | 87 | 19 | 96 | 87 | 98
